Experimental data from the supplement of paper PMC11061612.

Columns and labels:
Assay in all cases: Bliss excess, mean over the matrix (fraction); higher = more synergy
[1] = test system: HEC-1 (Endometrial Carcinoma)
Method in brief: (§1)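 After 24 hours at 37°C and 5% CO2 in 1536-well plates, cells in DMEM/F12 or RPMI plus 10% FBS received two-drug dose matrices for 72 hours. Viability came from CellTiter-Glo 2.0 luminescence and was scaled as inhibition, anchored at 0 by vehicle wells and at 1 by blank wells. Combination Emax is taken as the second-highest inhibition in the matrix, and Bliss excess as the observed combination effect less EA + EB − EA·EB, with EA and EB the single-agent effects.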

IST-MES1 (Mesothelioma) = test system: IST-MES1 (Mesothelioma)
Method in brief: as §1

[2] = test system: PSN1 (Pancreatic Carcinoma)
Method in brief: as §1

SF539 (Glioblastoma) = test system: SF539 (Glioblastoma)
Method in brief: as §1

[3] = test system: OVMIU (Ovarian Carcinoma)
Method in brief: as §1

[4] = test system: CAL-62 (Thyroid Gland Carcinoma)
Method in brief: as §1

WM278 (Melanoma) = test system: WM278 (Melanoma)
Method in brief: as §1

[5] = test system: L-1236 (Hodgkin's Lymphoma)
Method in brief: as §1

[6] = test system: SK-PN-DW (Other Solid Carcinomas)
Method in brief: as §1

[7] = test system: REH (B-Lymphoblastic Leukemia)
Method in brief: as §1

[8] = test system: NCI-H446 (Small Cell Lung Carcinoma)
Method in brief: as §1

[9] = test system: OAW-42 (Ovarian Carcinoma)
Method in brief: as §1

GB-1 (Glioblastoma) = test system: GB-1 (Glioblastoma)
Method in brief: as §1

[10] = test system: NCI-H2342 (Lung Adenocarcinoma)
Method in brief: as §1

[11] = test system: HSC-39 (Gastric Carcinoma)
Method in brief: as §1

[12] = test system: RERF-LC-Sq1 (Squamous Cell Lung Carcinoma)
Method in brief: as §1

[13] = test system: KE-37 (T-Lymphoblastic Leukemia)
Method in brief: as §1

[14] = test system: HCT-15 (Colorectal Carcinoma)
Method in brief: as §1

[15] = test system: SHP-77 (Small Cell Lung Carcinoma)
Method in brief: as §1

[16] = test system: RERF-GC-1B (Gastric Carcinoma)
Method in brief: as §1

| SMILES | Bliss excess [1] | Bliss excess (IST-MES1 (Mesothelioma)) | Bliss excess [2] | Bliss excess (SF539 (Glioblastoma)) | Bliss excess [3] | Bliss excess [4] | Bliss excess (WM278 (Melanoma)) | Bliss excess [5] | Bliss excess [6] | Bliss excess [7] | Bliss excess [8] | Bliss excess [9] | Bliss excess (GB-1 (Glioblastoma)) | Bliss excess [10] | Bliss excess [11] | Bliss excess [12] | Bliss excess [13] | Bliss excess [14] | Bliss excess [15] | Bliss excess [16] |
| --- | --- | --- | --- | --- | --- | --- | --- | --- | --- | --- | --- | --- | --- | --- | --- | --- | --- | --- | --- | --- |
| COc1nnc2ccc(N3CCC(c4ccc(OCCN5CCN(C)C(=O)[C@H]5C)cc4)CC3)nn12 [AZD5153] + C=CCn1c(=O)c2cnc(Nc3ccc(N4CCN(C)CC4)cc3)nc2n1-c1cccc(C(C)(C)O)n1 [AZD1775] (first compound max 1 µM, partner max 1 µM) | 0.0363 | -0.0347 | -0.0385 | -0.0303 | -0.0409 | -0.0228 | -0.0364 | -0.0138 | -0.0722 | -0.0291 | -0.0553 | -0.0338 | 0.056 | -0.0347 | -0.0516 | -0.1 | 0.0096 | -0.0738 | 0.0194 | -0.114 |
| COc1nnc2ccc(N3CCC(c4ccc(OCCN5CCN(C)C(=O)[C@H]5C)cc4)CC3)nn12 [AZD5153] + CC1(C)CCC(CN2CCN(c3ccc(C(=O)NS(=O)(=O)c4ccc(NCC5CCOCC5)c([N+](=O)[O-])c4)c(Oc4cnc5[nH]ccc5c4)c3)CC2)=C(c2ccc(Cl)cc2)C1 [Venetoclax] (first compound max 1 µM, 7x7, partner max 1 µM) | -0.0443 | -0.0237 | -0.0649 | -0.0797 | -0.0254 | -0.0461 | -0.0188 | 0.0177 | -0.0998 | -0.136 | 0.0507 | -0.0201 | -0.062 | -0.0384 | 0.0439 | -0.0246 | -0.0133 | -0.0242 | 0.0049 | -0.0442 |
| COc1nnc2ccc(N3CCC(c4ccc(OCCN5CCN(C)C(=O)[C@H]5C)cc4)CC3)nn12 [AZD5153] + CCN(CCO)CCCOc1ccc2c(Nc3cc(CC(=O)Nc4cccc(F)c4)[nH]n3)ncnc2c1 [AZD2811] (first compound max 1 µM, 7x7, partner max 1 µM) | -0.0176 | -0.0132 | 0.0384 | -0.0184 | -0.0733 | -0.0497 | -0.0654 | -0.027 | -0.0677 | -0.0891 | -0.0481 | -0.0491 | -0.0787 | -0.01 | -0.006 | 0.0063 | -0.0085 | -0.0143 | -0.0325 | -0.096 |
| COc1nnc2ccc(N3CCC(c4ccc(OCCN5CCN(C)C(=O)[C@H]5C)cc4)CC3)nn12 [AZD5153] + C[C@@H]1COCCN1C2=NC(=NC(=C2)C3(CC3)[S@](=N)(=O)C)C4=C5C=CNC5=NC=C4 [AZD6738] (first compound max 1 µM, 7x7, partner max 10 µM) | 0.0625 | -0.0183 | 0.0171 | 0.0418 | -0.0208 | -0.0082 | 0.0507 | -0.0093 | -0.0638 | -0.0059 | 0.0153 | 0.0752 | 0.0446 | 0.0133 | -0.0055 | 0.0033 | 0.0286 | 0.0267 | 0.0591 | 0.0429 |
| COc1nnc2ccc(N3CCC(c4ccc(OCCN5CCN(C)C(=O)[C@H]5C)cc4)CC3)nn12 [AZD5153] + Cc1c2c(nn1C)CSCc1cc(n(C)n1)CSc1cc(c3ccccc3c1)OCCCc1c(C(=O)O)n(C)c3c-2c(Cl)ccc13 [AZD5991] (first compound max 1 µM, 7x7, partner max 1 µM) | 0.0132 | -0.0031 | -0.0263 | -0.0273 | -0.0072 | -0.057 | -0.0929 | 0.0283 | 0.0472 | -0.0621 | 0.0153 | 0.0444 | -0.0513 | 0.0192 | 0.0135 | -0.0393 | 0.116 | -0.0709 | 0.0387 | 0.0602 |
| COc1nnc2ccc(N3CCC(c4ccc(OCCN5CCN(C)C(=O)[C@H]5C)cc4)CC3)nn12 [AZD5153] + Cn1cnc2c(F)c(Nc3ccc(Br)cc3Cl)c(C(=O)NOCCO)cc21 [Selumetinib] (first compound max 1 µM, 7x7, partner max 10 µM) | -0.0115 | 0.0054 | 0.0717 | -0.0255 | -0.0452 | 0.0286 | -0.0471 | -0.0252 | -0.0326 | -0.0495 | 0.033 | 0.02 | -0.035 | 0.0267 | -0.0013 | 0.102 | -0.0459 | 0.0243 | -0.134 | 0.0579 |
| Cc1c2c(nn1C)CSCc1cc(n(C)n1)CSc1cc(c3ccccc3c1)OCCCc1c(C(=O)O)n(C)c3c-2c(Cl)ccc13 [AZD5991] + C=CCn1c(=O)c2cnc(Nc3ccc(N4CCN(C)CC4)cc3)nc2n1-c1cccc(C(C)(C)O)n1 [AZD1775] (first compound max 1 µM, partner max 1 µM) | 0.0192 | 0.0383 | -0.0694 | -0.0239 | 0.0145 | -0.0385 | 0.0438 | -0.0319 | -0.0212 | -0.112 | -0.0162 | 0.0001 | 0.0148 | -0.0144 | 0.0058 | 0.0112 | 0.0334 | -0.0306 | -0.0378 | 0.0041 |
| Cc1c2c(nn1C)CSCc1cc(n(C)n1)CSc1cc(c3ccccc3c1)OCCCc1c(C(=O)O)n(C)c3c-2c(Cl)ccc13 [AZD5991] + CC1(C)CCC(CN2CCN(c3ccc(C(=O)NS(=O)(=O)c4ccc(NCC5CCOCC5)c([N+](=O)[O-])c4)c(Oc4cnc5[nH]ccc5c4)c3)CC2)=C(c2ccc(Cl)cc2)C1 [Venetoclax] (first compound max 1 µM, 7x7, partner max 1 µM) | -0.0543 | -0.0239 | -0.0873 | 0.0187 | -0.0207 | -0.0325 | -0.0393 | 0.0632 | 0.0206 | 0.206 | 0.117 | 0.0028 | -0.0257 | -0.0599 | 0.0266 | -0.0191 | 0.0273 | -0.0087 | 0.0977 | -0.0126 |
| Cc1c2c(nn1C)CSCc1cc(n(C)n1)CSc1cc(c3ccccc3c1)OCCCc1c(C(=O)O)n(C)c3c-2c(Cl)ccc13 [AZD5991] + Cc1cc2ncnn2cc1Nc1ncc2c(n1)n(C1CCOCC1)c(=O)n2C [AZD7648] (first compound max 1 µM, 7x7, partner max 10 µM) | -0.0375 | -0.0122 | -0.0628 | 0.0057 | -0.091 | -0.0187 | -0.0428 | 0.0299 | -0.0404 | -0.0082 | 0.0148 | -0.0419 | -0.0429 | -0.0535 | 0.0095 | -0.0088 | -0.0059 | -0.0354 | -0.0359 | -0.0085 |
| Cc1c2c(nn1C)CSCc1cc(n(C)n1)CSc1cc(c3ccccc3c1)OCCCc1c(C(=O)O)n(C)c3c-2c(Cl)ccc13 [AZD5991] + Cn1cnc2c(F)c(Nc3ccc(Br)cc3Cl)c(C(=O)NOCCO)cc21 [Selumetinib] (first compound max 1 µM, 7x7, partner max 3 µM) | -0.0318 | -0.0466 | 0.0011 | -0.0344 | -0.0284 | -0.0174 | 0.0368 | 0 | -0.0271 | -0.0302 | 0.0241 | 0.0218 | -0.0299 | -0.0673 | 0.0118 | 0.0048 | 0.0278 | 0.0116 | 0.0623 | 0.034 |
| NC1(C(=O)N[C@@H](CCO)c2ccc(Cl)cc2)CCN(c2ncnc3[nH]ccc23)CC1 [Capivasertib] + CC(=O)c1c(C)c2cnc(Nc3ccc(N4CCNCC4)cn3)nc2n(C2CCCC2)c1=O [Palbociclib] (first compound max 10 µM, 7x7, partner max 10 µM) | -0.0115 | -0.0632 | 0.0408 | -0.0486 | -0.0168 | 0.0169 | -0.0217 | -0.0829 | -0.0603 | 0.0022 | -0.03 | -0.0305 | -0.0497 | 0.0214 | 0.0906 | 0.0352 | 0.0024 | 0.0152 | -0.142 | -0.0203 |
| NC1(C(=O)N[C@@H](CCO)c2ccc(Cl)cc2)CCN(c2ncnc3[nH]ccc23)CC1 [Capivasertib] + CC(C)n1c(=O)n(C)c2cnc3cc(F)c(-c4ccc(OCCCN5CCCCC5)nc4)cc3c21 [AZD1390] (first compound max 10 µM, 7x7, partner max 0.3 µM) | -0.0453 | -0.0553 | -0.0422 | -0.0528 | -0.0592 | -0.0389 | -0.0671 | 0.0156 | -0.0892 | -0.135 | -0.0866 | -0.0171 | -0.0399 | -0.0212 | 0.0112 | -0.0655 | -0.0392 | -0.036 | -0.0178 | -0.0323 |
| NC1(C(=O)N[C@@H](CCO)c2ccc(Cl)cc2)CCN(c2ncnc3[nH]ccc23)CC1 [Capivasertib] + CCN(CCO)CCCOc1ccc2c(Nc3cc(CC(=O)Nc4cccc(F)c4)[nH]n3)ncnc2c1 [AZD2811] (first compound max 10 µM, 7x7, partner max 1 µM) | 0.016 | -0.0427 | -0.0309 | -0.0573 | -0.0385 | 0.0437 | -0.065 | -0.024 | -0.017 | -0.0591 | -0.0168 | 0.0291 | -0.0143 | 0.0242 | -0.0799 | 0.0072 | 0.0084 | -0.0021 | -0.0208 | 0.0188 |
| NC1(C(=O)N[C@@H](CCO)c2ccc(Cl)cc2)CCN(c2ncnc3[nH]ccc23)CC1 [Capivasertib] + COc1nnc2ccc(N3CCC(c4ccc(OCCN5CCN(C)C(=O)[C@H]5C)cc4)CC3)nn12 [AZD5153] (first compound max 10 µM, 7x7, partner max 1 µM) | 0.0143 | -0.0264 | -0.0448 | 0.0157 | 0.0026 | -0.0078 | 0.0078 | -0.0938 | -0.0003 | 0.0272 | 0.0021 | 0.0972 | 0.0557 | 0.0361 | 0.0142 | 0.0617 | -0.045 | 0.0306 | -0.0995 | 0.0375 |
